# Data reported in patent publication US10781224B2, “Bis(oxymethyl)phosphinic acid and biogenic metal salts thereof as regulators of plant growth and development” (priority 2016, dated 2020).
# Test system: rice (Diamant variety)
# Assay: Rice seed treatment with BHMPA salts: germinating power
# Format: in vivo
# Summary of the method: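 Seeds (50 per Petri dish on two layers of filter paper) soaked 1 h in BHMPA or its Ca, Mg, Na, Co, Mn, Cu or Zn salts at 1·10^−6-1·10^−12%, with water controls. Germination energy read on day 4, germination on day 8 (wheat) or day 7 (rice, corn), as % means of four replicates. Germinating power taken as root and sprout length plus wet and dry mass per 100 seedlings.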
# [1] = rice seed treatment, comparison with Melaphen (Table XXXIII), solution 1 · 10^−10%
# [2] = rice seeds, solution concentration 1 · 10^−6%
# [3] = rice seeds, solution concentration 1 · 10^−7%
# [4] = rice seeds, solution concentration 1 · 10^−8%
# [5] = rice seeds, solution concentration 1 · 10^−9%
# [6] = rice seeds, solution concentration 1 · 10^−10%
# [7] = rice seeds, solution concentration 1 · 10^−11%
# [8] = rice seeds, solution concentration 1 · 10^−12%
# [9] = rice, vs control, 1·10^−10% solution
smiles,measurement,setting,value
"O=P([O-])(CO)CO.O=P([O-])(CO)CO.[Mg+2] [Mg-salt, Magnesium BHMPA Salt]",optimum concentration for treating rice seeds before sowing,rice,1·10^−10%
same,"Length, root",[1],7.2 cm
same,"Length, root, + % to control",[1],50%
same,"Length, sprout",[1],4.6 cm
same,"Length, sprout, + % to control",[1],77%
same,"Mass, dry, root",[1],0.26 g/100 plantlings
same,"Mass, dry, root, + % to control",[1],24%
same,"Mass, dry, sprout",[1],0.30 g/100 plantlings
same,"Mass, dry, sprout, + % to control",[1],20%
same,"Mass, wet, root",[1],1.39 g/100 plantlings
same,"Mass, wet, root, + % to control",[1],42%
same,"Mass, wet, sprout",[1],2.39 g/100 plantlings
same,"Mass, wet, sprout, + % to control",[1],58%
same,"Length, root",[2],6.0 cm
same,"Length, root, + % to control",[2],13%
same,"Length, sprout",[2],2.8 cm
same,"Length, sprout, + % to control",[2],4%
same,"Mass, dry, root",[2],0.23 g/100 plantlings
same,"Mass, dry, root, + % to control",[2],4.5%
same,"Mass, dry, sprout",[2],0.35 g/100 plantlings
same,"Mass, dry, sprout, + % to control",[2],21%
same,"Mass, wet, root",[2],1.17 g/100 plantlings
same,"Mass, wet, root, + % to control",[2],18%
same,"Mass, wet, sprout",[2],1.96 g/100 plantlings
same,"Mass, wet, sprout, + % to control",[2],10%
same,"Length, root",[3],6.4 cm
same,"Length, root, + % to control",[3],21%
same,"Length, sprout",[3],2.9 cm
same,"Length, sprout, + % to control",[3],7%
same,"Mass, dry, root",[3],0.25 g/100 plantlings
same,"Mass, dry, root, + % to control",[3],14%
same,"Mass, dry, sprout",[3],0.40 g/100 plantlings
same,"Mass, dry, sprout, + % to control",[3],40%
same,"Mass, wet, root",[3],1.26 g/100 plantlings
same,"Mass, wet, root, + % to control",[3],27%
same,"Mass, wet, sprout",[3],2.21 g/100 plantlings
same,"Mass, wet, sprout, + % to control",[3],24%
same,"Length, root",[4],6.6 cm
same,"Length, root, + % to control",[4],24.5%
same,"Length, sprout",[4],3.0 cm
same,"Length, sprout, + % to control",[4],11%
same,"Mass, dry, root",[4],0.26 g/100 plantlings
same,"Mass, dry, root, + % to control",[4],18%
same,"Mass, dry, sprout",[4],0.43 g/100 plantlings
same,"Mass, dry, sprout, + % to control",[4],48%
same,"Mass, wet, root",[4],1.35 g/100 plantlings
same,"Mass, wet, root, + % to control",[4],36%
same,"Mass, wet, sprout",[4],2.31 g/100 plantlings
same,"Mass, wet, sprout, + % to control",[4],30%
same,"Length, root",[5],7.0 cm
same,"Length, root, + % to control",[5],32%
same,"Length, sprout",[5],3.2 cm
same,"Length, sprout, + % to control",[5],18.5%
same,"Mass, dry, root",[5],0.29 g/100 plantlings
same,"Mass, dry, root, + % to control",[5],32%
same,"Mass, dry, sprout",[5],0.47 g/100 plantlings
same,"Mass, dry, sprout, + % to control",[5],62%
same,"Mass, wet, root",[5],1.46 g/100 plantlings
same,"Mass, wet, root, + % to control",[5],46%
same,"Mass, wet, sprout",[5],2.37 g/100 plantlings
same,"Mass, wet, sprout, + % to control",[5],33%
same,"Length, root",[6],7.2 cm
same,"Length, root, + % to control",[6],36%
same,"Length, sprout",[6],3.8 cm
same,"Length, sprout, + % to control",[6],41%
same,"Mass, dry, root",[6],0.35 g/100 plantlings
same,"Mass, dry, root, + % to control",[6],59%
same,"Mass, dry, sprout",[6],0.49 g/100 plantlings
same,"Mass, dry, sprout, + % to control",[6],69%
same,"Mass, wet, root",[6],1.62 g/100 plantlings
same,"Mass, wet, root, + % to control",[6],63%
same,"Mass, wet, sprout",[6],2.52 g/100 plantlings
same,"Mass, wet, sprout, + % to control",[6],41.5%
same,"Length, root",[7],6.7 cm
same,"Length, root, + % to control",[7],26%
same,"Length, sprout",[7],3.1 cm
same,"Length, sprout, + % to control",[7],15%
same,"Mass, dry, root",[7],0.27 g/100 plantlings
same,"Mass, dry, root, + % to control",[7],23%
same,"Mass, dry, sprout",[7],0.44 g/100 plantlings
same,"Mass, dry, sprout, + % to control",[7],52%
same,"Mass, wet, root",[7],1.44 g/100 plantlings
same,"Mass, wet, root, + % to control",[7],45%
same,"Mass, wet, sprout",[7],2.34 g/100 plantlings
same,"Mass, wet, sprout, + % to control",[7],31%
same,"Length, root",[8],6.3 cm
same,"Length, root, + % to control",[8],19%
same,"Length, sprout",[8],2.9 cm
same,"Length, sprout, + % to control",[8],7%
same,"Mass, dry, root",[8],0.23 g/100 plantlings
same,"Mass, dry, root, + % to control",[8],4.5%
same,"Mass, dry, sprout",[8],0.39 g/100 plantlings
same,"Mass, dry, sprout, + % to control",[8],34%
same,"Mass, wet, root",[8],1.31 g/100 plantlings
same,"Mass, wet, root, + % to control",[8],32%
same,"Mass, wet, sprout",[8],2.18 g/100 plantlings
same,"Mass, wet, sprout, + % to control",[8],22%
same,dry mass of the roots increased by,[9],59%
same,dry mass of the sprouts increased by,[9],69%
same,length of the root increased by,[9],36%
same,length of the sprout increased by,[9],41%
same,wet mass of the roots increased by,[9],63%
same,wet mass of the sprouts increased by,[9],41.5%
